Holding throughout (test): NCI tumour cell line growth inhibition, 48 h
In experiment [1] the test system is HOP-92 NSCLC.
The subject of experiment [2] is OVCAR-4 ovarian.
Experiment [3] deals with NCI-H522 lung.
Experiment [4] concerns HT29 colon.
The subject of experiment [5] is HS 578T breast.
Experiment [6] deals with ACHN renal.
Experiment [7] has as its system K-562 leukemia.
Experiment [8] concerns NCI-H23 lung.
The test system of experiment [9] is HCT-15 colon.
The subject of experiment [10] is UACC-257 melanoma.
For experiment [11], the system named is MOLT-4 leukemia.
Experiment [12] concerns SNB-19 CNS.
In experiment [13] the test system is EKVX NSCLC.
The subject of experiment [14] is SR leukemia.
In experiment [15] the test system is LOX IMVI melanoma.

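Results reflect a 48-hour exposure of cells in 96-well plates to compound at five concentrations. Definition used: TGI = concentration required for complete inhibition of growth.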

With `C/C(=N/NC(=S)N(C)CCc1ccccn1)c1cnccn1`, the TGI in experiment [1] was 21.2 µM; in experiment [2] it was 5.93 µM; in experiment [3], 20.8 µM; in experiment [4], 11.9 µM; in [5], 53.9 µM; in experiment [6], 3.51 µM. Further, the TGI was above 100 µM in experiment [7]; 13 µM in experiment [8]; 29 µM in experiment [9]; 34.6 µM in [10]; above 71.1 µM in experiment [11]; 19 µM in experiment [12]. Besides, the figures for the TGI in experiment [13] and in experiment [14] were 12.8 µM and above 100 µM, respectively.
On to `Nc1ccc(C(=O)NN2C(=O)C(Cl)C2c2cc(Br)cc(Br)c2O)cc1` (stereo unspecified), for which the TGI is above 100 µM in experiment [1]; above 100 µM in [2]; above 100 µM in experiment [3]; above 100 µM in experiment [4]; 61.9 µM in experiment [6]; 58 µM in experiment [8]. The TGI was 33.8 µM in [15]; above 100 µM in [9]; 85.9 µM in experiment [10]; above 100 µM in [11]; above 100 µM in [12]; 59.5 µM in [13]. Also, the TGI in experiment [14] was above 100 µM.
`CCOc1ncn(-c2ccc(NC(=S)Nc3cnccn3)cc2)n1`: the TGI in [1], in experiment [2], in experiment [3], in experiment [4], in experiment [5] and in [6] was above 10 µM throughout. Also, the TGI in experiment [7], in experiment [8], in experiment [9], in experiment [10], in [11] and in experiment [12] was above 10 µM each time. The TGI in [13] and in [14] was above 10 µM in each case.
On to `COc1cccc(CCn2c(N)c(C(=O)O)c3ccc([N+](=O)[O-])cc3c2=O)c1`, for which the TGI in [2] is above 100 µM; in experiment [3], 75.8 µM; in experiment [4] it was above 100 µM; in [5] it was above 100 µM; in [6], above 100 µM; in [7] it was above 100 µM. Moreover, the TGI was 64.7 µM in experiment [8]; above 100 µM in experiment [15]; above 100 µM in experiment [9]; above 100 µM in experiment [11]; above 100 µM in experiment [12]; above 100 µM in experiment [13]. For the same compound, in [14], the TGI is above 100 µM.
Turning to `CC(OC1CC(=O)CC2C(=O)C=CC(=O)C12)c1ccccc1` (stereo unspecified), the TGI in experiment [1] is 2.97 µM; in [2] it was 32.4 µM; in [3], 2.98 µM; in experiment [4], 33 µM; in experiment [6] it was 24.1 µM; in experiment [7], above 100 µM. In addition, the TGI in experiment [8] was 33.6 µM; in experiment [15] it was 33.3 µM; in experiment [9], 31.4 µM; in experiment [10], 35.4 µM; in experiment [11], above 49.2 µM; in [12] it was above 55.9 µM. The TGI in [13] turned out to be 30.6 µM; in [14] it was 42.8 µM.
For the compound `COC(=O)/C=C\[C@@H]1[C@H](C)N1S(=O)(=O)c1ccc(C)cc1` (stereo partly specified), the TGI in experiment [2], in experiment [3], in experiment [4], in experiment [5], in [6] and in [7] was above 100 µM throughout. For the same compound, the TGI in [8], in [15], in experiment [9], in experiment [10], in experiment [11] and in [12] was above 100 µM throughout. Besides, the TGI in experiment [14] is above 100 µM.
Regarding `COCOc1cc(OC)c(Br)cc1C/C(=N/O)C(=O)OC`, the TGI was above 100 µM in experiment [2]; above 100 µM in experiment [3]; above 100 µM in [4]; 57.3 µM in experiment [5]; above 100 µM in [6]; above 100 µM in experiment [7]. Moreover, the TGI in experiment [8], in experiment [15], in experiment [9], in [10], in experiment [11] and in experiment [12] was above 100 µM in each case. Besides, the TGI in experiment [13] and in experiment [14] was above 100 µM in each case.
Take `C[n+]1c2ccccc2c(C(=O)NC(CCCN=C(N)N)C(=O)O)c2ccccc21` (stereo unspecified): the TGI in experiment [2], in experiment [4], in [5], in experiment [6], in experiment [7] and in experiment [8] was above 100 µM each time. The TGI in [15], in experiment [9], in [10], in experiment [11], in experiment [12] and in experiment [13] was above 100 µM each time. Moreover, the TGI in [14] is above 100 µM.
As to `CC(=O)/C=C(/C=N/O)c1ccccc1`, the TGI in experiment [2], in [3], in experiment [4], in experiment [5], in experiment [6] and in [7] was above 100 µM throughout. In addition, the TGI in experiment [8], in experiment [15], in experiment [9], in [10], in [11] and in [12] was above 100 µM throughout. Moreover, the TGI in experiment [13] and in [14] was above 100 µM in each case.
Regarding `CN(C)Cc1cc(C(=O)/C=C/c2ccc(Br)cc2)cc(CN(C)C)c1O`, the TGI in [2] was 28.8 µM; in experiment [3], 12.6 µM; in experiment [4], 12.5 µM; in [5], 45.1 µM; in experiment [6], 15 µM; in experiment [7], 10.8 µM. The TGI in experiment [8] was 33 µM; in experiment [15], 5.43 µM; in [9], 25.3 µM; in experiment [10], 19.5 µM; in experiment [11] it was 19.6 µM; in experiment [12], 26.6 µM. For the same compound, the TGI in experiment [13] is 36.3 µM; in [14], 50.6 µM.

The values above are taken from PubChem BioAssay (NCI).
